#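 Protocol summary: plate cells (96-well), add compound at 5 concentrations, incubate 48 h, interpolate endpoints linearly. TGI marks complete inhibition of growth.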
# Legend:
# Assay in all cases: DTP human tumour cell line panel, 48 h
# LXFL 529 NSCLC = test system: LXFL 529 NSCLC
# HT29 colon = test system: HT29 colon
# SF-268 CNS = test system: SF-268 CNS
# M19-MEL melanoma = test system: M19-MEL melanoma
# HOP-62 NSCLC = test system: HOP-62 NSCLC
# IGROV1 ovarian = test system: IGROV1 ovarian
# RPMI-8226 leukemia = test system: RPMI-8226 leukemia
# NCI-H460 lung = test system: NCI-H460 lung
# MALME-3M melanoma = test system: MALME-3M melanoma
# SF-295 CNS = test system: SF-295 CNS
# DLD-1 colon = test system: DLD-1 colon
# KM20L2 colon = test system: KM20L2 colon
# A549 NSCLC = test system: A549 NSCLC
# CCRF-CEM leukemia = test system: CCRF-CEM leukemia
# OVCAR-8 ovarian = test system: OVCAR-8 ovarian
# NCI-H226 lung = test system: NCI-H226 lung
# UACC-257 melanoma = test system: UACC-257 melanoma
# LOX IMVI melanoma = test system: LOX IMVI melanoma
# SK-OV-3 ovarian = test system: SK-OV-3 ovarian
# UO-31 renal = test system: UO-31 renal
# NCI-H23 lung = test system: NCI-H23 lung
# SF-539 CNS = test system: SF-539 CNS
# OVCAR-3 ovarian = test system: OVCAR-3 ovarian
# SK-MEL-5 melanoma = test system: SK-MEL-5 melanoma
# 786-0 renal = test system: 786-0 renal
# SK-MEL-2 melanoma = test system: SK-MEL-2 melanoma
# K-562 leukemia = test system: K-562 leukemia
# EKVX NSCLC = test system: EKVX NSCLC
# HL-60(TB) leukemia = test system: HL-60(TB) leukemia
# SW-620 colon = test system: SW-620 colon
# M14 melanoma = test system: M14 melanoma
# HOP-92 NSCLC = test system: HOP-92 NSCLC
# A498 renal = test system: A498 renal
# TK-10 renal = test system: TK-10 renal
# HCC-2998 colon = test system: HCC-2998 colon
# UACC-62 melanoma = test system: UACC-62 melanoma
# OVCAR-5 ovarian = test system: OVCAR-5 ovarian
# RXF 393 renal = test system: RXF 393 renal
# MOLT-4 leukemia = test system: MOLT-4 leukemia
# COLO 205 colon = test system: COLO 205 colon
# U251 CNS = test system: U251 CNS
# RXF-631 renal = test system: RXF-631 renal
# NCI-H522 lung = test system: NCI-H522 lung
# XF 498 CNS = test system: XF 498 CNS
# SNB-75 CNS = test system: SNB-75 CNS
# HCT-116 colon = test system: HCT-116 colon
# SK-MEL-28 melanoma = test system: SK-MEL-28 melanoma
# KM12 colon = test system: KM12 colon
# SNB-78 CNS = test system: SNB-78 CNS
# CAKI-1 renal = test system: CAKI-1 renal
# ACHN renal = test system: ACHN renal
# HCT-15 colon = test system: HCT-15 colon
# DMS 114 small cell lung = test system: DMS 114 small cell lung
# OVCAR-4 ovarian = test system: OVCAR-4 ovarian
# SN12C renal = test system: SN12C renal
# SR leukemia = test system: SR leukemia
# HOP-18 NSCLC = test system: HOP-18 NSCLC
# DMS 273 small cell lung = test system: DMS 273 small cell lung
# SNB-19 CNS = test system: SNB-19 CNS
structure (smiles),measurement,setting,value
C/C(CC(=O)Nc1cccc(Cl)c1C)=N\NC(N)=S,TGI,LXFL 529 NSCLC,> 100 µM
same,TGI,HT29 colon,> 100 µM
same,TGI,SF-268 CNS,> 100 µM
same,TGI,M19-MEL melanoma,> 100 µM
same,TGI,HOP-62 NSCLC,> 100 µM
same,TGI,IGROV1 ovarian,> 100 µM
same,TGI,RPMI-8226 leukemia,> 100 µM
same,TGI,NCI-H460 lung,> 100 µM
same,TGI,MALME-3M melanoma,> 100 µM
same,TGI,SF-295 CNS,> 100 µM
same,TGI,DLD-1 colon,> 100 µM
same,TGI,KM20L2 colon,> 100 µM
same,TGI,A549 NSCLC,> 100 µM
same,TGI,CCRF-CEM leukemia,> 100 µM
same,TGI,OVCAR-8 ovarian,> 100 µM
same,TGI,NCI-H226 lung,> 100 µM
same,TGI,UACC-257 melanoma,> 100 µM
same,TGI,LOX IMVI melanoma,> 100 µM
same,TGI,SK-OV-3 ovarian,> 100 µM
same,TGI,UO-31 renal,> 100 µM
same,TGI,NCI-H23 lung,> 100 µM
same,TGI,SF-539 CNS,> 100 µM
same,TGI,OVCAR-3 ovarian,> 100 µM
same,TGI,SK-MEL-5 melanoma,> 100 µM
same,TGI,786-0 renal,> 100 µM
same,TGI,SK-MEL-2 melanoma,> 100 µM
same,TGI,K-562 leukemia,> 100 µM
same,TGI,EKVX NSCLC,> 100 µM
same,TGI,HL-60(TB) leukemia,> 100 µM
same,TGI,SW-620 colon,> 100 µM
same,TGI,M14 melanoma,> 100 µM
same,TGI,HOP-92 NSCLC,> 100 µM
same,TGI,A498 renal,> 100 µM
same,TGI,TK-10 renal,> 100 µM
same,TGI,HCC-2998 colon,> 100 µM
same,TGI,UACC-62 melanoma,> 100 µM
same,TGI,OVCAR-5 ovarian,> 100 µM
same,TGI,RXF 393 renal,> 100 µM
same,TGI,MOLT-4 leukemia,> 100 µM
same,TGI,COLO 205 colon,> 100 µM
same,TGI,U251 CNS,> 100 µM
same,TGI,RXF-631 renal,> 100 µM
same,TGI,NCI-H522 lung,> 100 µM
same,TGI,XF 498 CNS,> 100 µM
same,TGI,SNB-75 CNS,> 100 µM
same,TGI,HCT-116 colon,> 100 µM
same,TGI,SK-MEL-28 melanoma,> 100 µM
same,TGI,KM12 colon,> 100 µM
same,TGI,SNB-78 CNS,> 100 µM
C[N+]1=c2c3cccc4cccc(c(=O)n2CC1)c43,TGI,LXFL 529 NSCLC,42.4 µM
same,TGI,CAKI-1 renal,> 100 µM
same,TGI,HT29 colon,64.4 µM
same,TGI,ACHN renal,> 100 µM
same,TGI,SF-268 CNS,35.1 µM
same,TGI,M19-MEL melanoma,31.6 µM
same,TGI,HOP-62 NSCLC,53.1 µM
same,TGI,IGROV1 ovarian,60.5 µM
same,TGI,RPMI-8226 leukemia,93.1 µM
same,TGI,NCI-H460 lung,28.2 µM
same,TGI,HCT-15 colon,60.7 µM
same,TGI,MALME-3M melanoma,22.6 µM
same,TGI,SF-295 CNS,56.1 µM
same,TGI,DLD-1 colon,44 µM
same,TGI,KM20L2 colon,43.3 µM
same,TGI,A549 NSCLC,53 µM
same,TGI,CCRF-CEM leukemia,42.3 µM
same,TGI,OVCAR-8 ovarian,80.9 µM
same,TGI,NCI-H226 lung,28.7 µM
same,TGI,UACC-257 melanoma,30 µM
same,TGI,LOX IMVI melanoma,17.6 µM
same,TGI,SK-OV-3 ovarian,93.8 µM
same,TGI,DMS 114 small cell lung,29.2 µM
same,TGI,UO-31 renal,32.4 µM
same,TGI,NCI-H23 lung,32.3 µM
same,TGI,SF-539 CNS,32.2 µM
same,TGI,OVCAR-3 ovarian,79.8 µM
same,TGI,SK-MEL-5 melanoma,32.8 µM
same,TGI,786-0 renal,> 100 µM
same,TGI,SK-MEL-2 melanoma,34.8 µM
same,TGI,K-562 leukemia,47.7 µM
same,TGI,EKVX NSCLC,87.5 µM
same,TGI,HL-60(TB) leukemia,46.3 µM
same,TGI,SW-620 colon,> 100 µM
same,TGI,M14 melanoma,28.7 µM
same,TGI,HOP-92 NSCLC,61.8 µM
same,TGI,A498 renal,30.9 µM
same,TGI,TK-10 renal,38.8 µM
same,TGI,OVCAR-4 ovarian,43.9 µM
same,TGI,UACC-62 melanoma,31.5 µM
same,TGI,SN12C renal,68.8 µM
same,TGI,OVCAR-5 ovarian,33.5 µM
same,TGI,RXF 393 renal,25.5 µM
same,TGI,SR leukemia,9.59 µM
same,TGI,MOLT-4 leukemia,10.6 µM
same,TGI,COLO 205 colon,24.6 µM
same,TGI,U251 CNS,85.8 µM
same,TGI,RXF-631 renal,> 100 µM
same,TGI,NCI-H522 lung,24.4 µM
same,TGI,HOP-18 NSCLC,54.1 µM
same,TGI,DMS 273 small cell lung,28.8 µM
same,TGI,SNB-75 CNS,45 µM
same,TGI,HCT-116 colon,17.3 µM
same,TGI,SK-MEL-28 melanoma,30.1 µM
same,TGI,KM12 colon,42.3 µM
same,TGI,SNB-78 CNS,54.7 µM
C/C(CC(=O)NCCc1ccccc1)=N\NS(=O)(=O)c1ccc(C)cc1,TGI,LXFL 529 NSCLC,> 100 µM
same,TGI,HT29 colon,> 100 µM
same,TGI,ACHN renal,> 100 µM
same,TGI,SF-268 CNS,> 100 µM
same,TGI,M19-MEL melanoma,> 100 µM
same,TGI,HOP-62 NSCLC,> 100 µM
same,TGI,IGROV1 ovarian,> 100 µM
same,TGI,RPMI-8226 leukemia,> 100 µM
same,TGI,NCI-H460 lung,> 100 µM
same,TGI,MALME-3M melanoma,> 100 µM
same,TGI,SF-295 CNS,> 100 µM
same,TGI,DLD-1 colon,> 100 µM
same,TGI,KM20L2 colon,> 100 µM
same,TGI,A549 NSCLC,> 100 µM
same,TGI,CCRF-CEM leukemia,> 100 µM
same,TGI,OVCAR-8 ovarian,> 100 µM
same,TGI,NCI-H226 lung,> 100 µM
same,TGI,UACC-257 melanoma,> 100 µM
same,TGI,LOX IMVI melanoma,> 100 µM
same,TGI,SK-OV-3 ovarian,> 100 µM
same,TGI,DMS 114 small cell lung,> 100 µM
same,TGI,UO-31 renal,> 100 µM
same,TGI,NCI-H23 lung,> 100 µM
same,TGI,SF-539 CNS,> 100 µM
same,TGI,OVCAR-3 ovarian,> 100 µM
same,TGI,SK-MEL-5 melanoma,> 100 µM
same,TGI,786-0 renal,> 100 µM
same,TGI,SK-MEL-2 melanoma,> 100 µM
same,TGI,K-562 leukemia,> 100 µM
same,TGI,EKVX NSCLC,> 100 µM
same,TGI,HL-60(TB) leukemia,> 100 µM
same,TGI,SW-620 colon,> 100 µM
same,TGI,M14 melanoma,> 100 µM
same,TGI,HOP-92 NSCLC,> 100 µM
same,TGI,A498 renal,> 100 µM
same,TGI,TK-10 renal,> 100 µM
same,TGI,HCC-2998 colon,> 100 µM
same,TGI,UACC-62 melanoma,> 100 µM
same,TGI,OVCAR-5 ovarian,> 100 µM
same,TGI,RXF 393 renal,> 100 µM
same,TGI,MOLT-4 leukemia,> 100 µM
same,TGI,COLO 205 colon,> 100 µM
same,TGI,U251 CNS,> 100 µM
same,TGI,RXF-631 renal,> 100 µM
same,TGI,NCI-H522 lung,> 100 µM
same,TGI,XF 498 CNS,> 100 µM
same,TGI,DMS 273 small cell lung,> 100 µM
same,TGI,SNB-75 CNS,> 100 µM
same,TGI,HCT-116 colon,> 100 µM
same,TGI,SK-MEL-28 melanoma,> 100 µM
same,TGI,KM12 colon,> 100 µM
same,TGI,SNB-78 CNS,> 100 µM
COc1cc2c(cc1OC)C(C(=O)O)C(c1ccccc1)N(C)C2=O (configuration not stated),TGI,LXFL 529 NSCLC,> 100 µM
same,TGI,CAKI-1 renal,> 100 µM
same,TGI,HT29 colon,> 100 µM
same,TGI,ACHN renal,> 100 µM
same,TGI,SF-268 CNS,> 100 µM
same,TGI,M19-MEL melanoma,> 100 µM
same,TGI,HOP-62 NSCLC,> 100 µM
same,TGI,IGROV1 ovarian,> 100 µM
same,TGI,RPMI-8226 leukemia,> 100 µM
same,TGI,NCI-H460 lung,> 100 µM
same,TGI,MALME-3M melanoma,> 100 µM
same,TGI,SF-295 CNS,> 100 µM
same,TGI,DLD-1 colon,> 100 µM
same,TGI,KM20L2 colon,> 100 µM
same,TGI,A549 NSCLC,> 100 µM
same,TGI,CCRF-CEM leukemia,> 100 µM
same,TGI,OVCAR-8 ovarian,> 100 µM
same,TGI,SNB-19 CNS,> 100 µM
same,TGI,UACC-257 melanoma,> 100 µM
same,TGI,SK-OV-3 ovarian,> 100 µM
same,TGI,DMS 114 small cell lung,> 100 µM
same,TGI,UO-31 renal,> 100 µM
same,TGI,NCI-H23 lung,> 100 µM
same,TGI,SF-539 CNS,> 100 µM
same,TGI,OVCAR-3 ovarian,> 100 µM
same,TGI,SK-MEL-5 melanoma,> 100 µM
same,TGI,786-0 renal,> 100 µM
same,TGI,SK-MEL-2 melanoma,> 100 µM
same,TGI,K-562 leukemia,> 100 µM
same,TGI,EKVX NSCLC,> 100 µM
same,TGI,SW-620 colon,> 100 µM
same,TGI,M14 melanoma,> 100 µM
same,TGI,A498 renal,> 100 µM
same,TGI,TK-10 renal,> 100 µM
same,TGI,OVCAR-4 ovarian,> 100 µM
same,TGI,HCC-2998 colon,> 100 µM
same,TGI,UACC-62 melanoma,> 100 µM
same,TGI,SN12C renal,> 100 µM
same,TGI,OVCAR-5 ovarian,> 100 µM
same,TGI,MOLT-4 leukemia,> 100 µM
same,TGI,COLO 205 colon,> 100 µM
same,TGI,U251 CNS,> 100 µM
same,TGI,NCI-H522 lung,> 100 µM
same,TGI,HOP-18 NSCLC,> 100 µM
same,TGI,XF 498 CNS,> 100 µM
same,TGI,SNB-75 CNS,> 100 µM
same,TGI,HCT-116 colon,> 100 µM
same,TGI,SK-MEL-28 melanoma,> 100 µM
same,TGI,KM12 colon,> 100 µM
same,TGI,SNB-78 CNS,> 100 µM
